From patent US12128035B2, “Activating pyruvate kinase R” (Novo Nordisk Health Care AG, priority 2021, dated 2024) come the findings set out here.

The nature of series [1]: Phase 1 SAD/MAD: safety (adverse events) in healthy volunteers. The series is classed as in vivo, human. The procedure:
(§1) In this study, SAD/MAD cohorts are randomized (3 to 1) to receive Compound 1 or placebo (P). Compound 1 was evaluated first in 4 healthy SAD cohorts and 4 healthy MAD (14-day dosing period) cohorts. Based on the safety, and PK/PD profile from HS, Compound 1 is then evaluated in 1 SCD SAD cohort and 2 SCD MAD cohorts. Specifically, based on the safety and pharmacokinetic/pharmacodynamics (PK/PD) profile in healthy volunteer studies, Compound 1 is evaluated in patients (pts) with SCD, first in a single dose (SD or SAD) cohort and then in multiple-dose (MD or MAD) cohorts (14-day and 12-week). Safety assessments include AEs, vital signs, ECGs and laboratory parameters. PK/PD blood sampling was performed on Day 1 (SAD/MAD) and Day 14 (MAD) and up to 72 h after the last dose and at the end-of-study visit. PD parameters included 2,3-DPG, ATP, and p50 in all cohorts with additional PD studies (including oxygen scan) performed only in the SCD cohorts. PD parameters included 2,3-DPG, ATP, p50, RBC deformability with controlled deoxygenation and reoxygenation (Lorrca® oxygen scan) and varying osmolality (Lorrca® osmoscan)). To maintain study blind, pt identifiers were removed when needed.
Outcome Measures Primary Outcome Measures: • 1. Incidence, frequency, and severity of adverse events (AEs) per CTCAE v5.0 of a single ascending dose and multiple ascending doses of Compound 1 in adult healthy volunteers and SCD patients. Incidence of abnormal laboratory test results (clinical chemistry, endocrine hematology, urinalysis). Change from baseline in vital signs (blood pressure, respiratory rate, heart rate, and oral temperature). Incidence of treatment-emergent clinically significant abnormal findings in ECGs. • [Time Frame: Up to 3 weeks of monitoring] • 2. […] Area under the plasma concentration-time curve from time zero until the 24-hour time point (AUC0-24) • [Time Frame: Up to 3 weeks of testing] • 5. Area under the plasma concentration-time curve from time zero until last quantifiable time point (AUC0-last) • [Time Frame: Up to 3 weeks of testing] • 6. Area under the plasma concentration-time curve from time zero to infinity (AUC0-inf) • [Time Frame: Up to 3 weeks of testing] • 7. […] Apparent volume of distribution (Vd/F) • [Time Frame: Up to 3 weeks of testing] • 10. Terminal disposition rate constant (Lz) • [Time Frame: Up to 3 weeks of testing] • 11. […] Secondary Outcome Measures: • 12. Change from baseline in the levels of 2,3-diphosphoglycerate (DPG) and adenosine triphosphate (ATP) in the red blood cells (RBCs) of healthy volunteers and SCD patients after single and multiple doses of Compound 1. • [Time Frame: Up to 3 weeks of testing] • 13. […] Change from baseline heart rate after a single dose of Compound 1 in healthy volunteers and/or SCD subjects • [Time Frame: up to 7 days] • 15. Change from baseline PR after a single dose of Compound 1 in healthy volunteers and/or SCD subjects • [Time Frame: up to 7 days] • 16. Change from baseline QRS (AHR, APR, and AQRS) after a single dose of Compound 1 in healthy volunteers and/or SCD subjects • [Time Frame: up to 7 days] • 17. Change from baseline T-wave morphology after a single dose of Compound 1 in healthy volunteers and/or SCD subjects • [Time Frame: up to 7 days] Exploratory Outcome Measures: • 18. Effect of food on Cmax, AUC0-24/AUClast • 19. Effect of AUClast/AUC0-24, Cmax, minimum plasma concentration (Cmin), peak-to trough ratio, dose linearity, accumulation ratio on safety, PD, and hematologic parameters of interest, as assessed by exposure-response analyses • 20. Effect of 2,3-DPG reduction in RBCs on the oxyhemoglobin dissociation curve (p50; partial pressure of O2 at which 50% of hemoglobin is saturated with O2) after a single dose and after chronic dosing of Compound 1 • 21. Effect of chronic Compound 1 dosing on normal and SCD RBC deformability by osmotic gradient ektacytometry and oxygen gradient ektacytometry • 22. […]

For a further series, the system named is sickle RBCs. Put plainly: Phase 1: Lorrca Oxygenscan in SCD patients. The series is classed as in vivo, human. Particulars: SCD single 700 mg, Post-dose (24 hours), median (range). Here is the method:
as §1, with “To maintain study blind, pt identifiers were removed when needed.” left out
Functional evaluation of RBCs was performed using Laser-Optical Rotational Red Cell Analyzer (Lorrca®) technology (RR Mechatronics, Zwaag, The Netherlands). […] In brief, the Oxygenscan allows for the measurement and visualisation of RBC elongation in shear stress in an oxygen gradient, during deoxygenation and re-oxygenation, expressed as the elongation index (EI). […] Evaluated Osmoscan parameters included: EImax; Omin (osmolality at ELmax; hypotonic region), which corresponds to the value of the hypotonic osmolality at which 50% of the cells hemolyse in an osmotic fragility assay and provides information on the initial surface-to-volume ratio of the RBCs; and Ohyper (osmolality corresponding to 50% of the EImax; hypertonic region), which correlates with the initial intracellular viscosity of the cell sample. […]
The effects of a single dose of Compound 1 (700 mg) versus placebo on oxygen scan, oxygen affinity (p50), and osmoscan in SCD patients were evaluated. […]

The structures appear in SMILES notation.

Regarding `O=C([C@H](CO)c1ccccc1)N1CC2=C(C1)CN(S(=O)(=O)c1cnc3c(c1)OCCO3)C2` (single isomer, unassigned) [Compound 1], in series [1] (HS receiving 14 days), the “Grade 1 headache (most common AE)” value is given as 28%. Moreover, the “Grade 1 headache (most common AE)” value in series [1] (HS receiving a single dose) was determined as 4%. In series [1] (HV MAD Compound 1 N = 36), the “Any TEAE, n (%)” value is given as 15 (42) n (%); the “Any grade 3 or greater TEAE, n (%)” value is reported as 0 n (%); the “Drug interruption, reduction, or discontinuation due to TEAE, n (%)” value is 0 n (%). Moreover, in series [1] (HV MAD cohorts), the “related TEAE of grade 2 or less: headache” value is 4 n, the “related TEAE of grade 2 or less: palpitations” value came to 1 n and the “related TEAE of grade 2 or less: somnolence” value is recorded as 1 n. Also, in series [1] (HV SAD Compound 1 N = 24), the “Any TEAE, n (%)” value is listed as 5 (21) n (%); the “Any grade 3 or greater TEAE, n (%)” value is reported as 1 (4) n (%); the “Drug interruption, reduction, or discontinuation due to TEAE, n (%)” value was 0 n (%). Further, in series [1] (HV SAD cohorts), the “related TEAE of grade 2 or less: headache” value came out at 1 n and the “related TEAE of grade 2 or less: transient ventricular tachycardia” value is listed as 1 n. Moreover, the “serious adverse events / AEs leading to withdrawal” value in series [1] (SAD and MAD cohorts of healthy volunteers) is on record as “No serious adverse events (SAEs) or AEs leading to withdrawal were reported”. For the same compound, the “EImin (Oxygenscan)” value in the series with sickle RBCs (pre-dose 0.193 (0.16, 0.21)) was 0.296 (0.26, 0.38). The “EImax (Oxygenscan)” value in the series with sickle RBCs (pre-dose 0.445 (0.41, 0.51)) was 0.451 (0.42, 0.52). Moreover, the “POS (Oxygenscan)” value in the series with sickle RBCs (pre-dose 35.4 (27.3, 38.8)) is reported as 24.0 (17.9, 31.8).
